{"source": "patent US7217527B2", "about": "“Assay for phosphodiesterase function” (Vanderbilt University, priority 2003, dated 2007)", "key": {"[1]": {"molecular_target": "T1, isolated regulatory domain of PDE5 (Homo sapiens, UniProt O76074)", "T1 construct": "made in house", "format": "binding", "procedure": "Reactions were incubated on an ice water bath for 20 min. […] Tubes were each rinsed with 3 ml of the same buffer and filtered. The filter membranes were removed and placed into slots of a scintillation vial box for subsequent drying. The vial box was placed into a glassware dryer for 10 min, and dried papers were transferred to 6 ml scintillation vials. Five ml non-aqueous scintillant was added, and papers were counted in a scintillation counter."}, "crude human lung extract": {"molecular_target": "T2, crude human lung extract (Homo sapiens, UniProt O76074)", "T2 construct": "from tissue; host or cells: human lung (explanted lung of transplant patients), supernatant fractionated on DEAE-Sephacel", "assay": "[^3H]sildenafil binding in DEAE-Sephacel fractions of crude human lung extract (FIG. 5)", "conditions": "16 nM [^3H]sildenafil", "experimental": "5 g human lung was thawed, cut into small pieces and homogenized in 80 ml 2.5 mM potassium phosphate (pH 6.8) containing 0.25 mM EDTA, 0.025 mM IBMX, 4 mM β-mercaptoethanol, and 1 mM CaCl2 with a Cuisinart apparatus (high speed) using 3 bursts of 15 sec each at 4° C. After centrifugation in a Beckman JA-20 rotor for 30 min at 10,000×g, 72 ml supernatant was applied to a DEAE-Sephacel column (0.9×10 cm) equilibrated in KPM and the column was washed with 20 ml of KPM containing 20 mM NaCl and 1 mM CaCl2. The column was developed with a linear (20–280 mM) NaCl gradient in KPM containing 1 mM CaCl2. […] PKG activity was determined in the presence of 2 μM cGMP as described in Materials and Methods."}, "GAF domains of PDE5": {"molecular_target": "GAF domains of PDE5 (Homo sapiens, UniProt O76074)", "conditions": "cited from earlier work"}, "PDE5": {"molecular_target": "PDE5 (Homo sapiens, UniProt O76074)", "conditions": "read-out: Km for the catalytic site; cited from earlier work"}, "[2]": {"test_system": "second peak of cGMP PDE activity (human lung extract)", "conditions": "40 pmol/ml sildenafil; 0.4 μM [^3H]cGMP substrate", "experimental": "PKG activity was determined in the presence of 2 μM cGMP as described in Materials and Methods.\nPDE activity was determined by a modified assay (Martins et al., 1982) as described earlier (Gopal et al., 2001) using 0.4 μM [^3H]cGMP as substrate. PKG activity was determined in the presence of 2 μM cGMP as described (Gopal et al., 2001)."}}, "data": [{"smiles": "CCCc1nn(C)c2c(=O)[nH]c(-c3cc(S(=O)(=O)N4CCN(C)CC4)ccc3OCC)nc12", "note": "[[^3H]sildenafil]", "values": [{"measurement": "binding to isolated regulatory domain of PDE5", "setting": "[1]", "result": "did not detectably bind"}, {"measurement": "[^3H]sildenafil-binding activity other than the PDE5 peak", "setting": "crude human lung extract", "result": "no other significant peak"}]}, {"smiles": "Nc1nc2c(ncn2[C@@H]2O[C@@H]3COP(=O)(O)O[C@H]3[C@H]2O)c(=O)[nH]1", "note": "[cGMP]", "values": [{"measurement": "Kd", "setting": "GAF domains of PDE5", "result": 200, "unit": "nM"}, {"measurement": "Km", "setting": "PDE5", "result": 5, "unit": "µM"}]}, {"smiles": "CCCc1nn(C)c2c(=O)[nH]c(-c3cc(S(=O)(=O)N4CCN(C)CC4)ccc3OCC)nc12", "note": "[sildenafil]", "values": [{"measurement": "inhibition of second peak of cGMP PDE activity", "setting": "[2]", "result": "not inhibited"}, {"measurement": "competition with [^3H]cGMP for binding to the GAF domains of PDE5", "setting": "GAF domains of PDE5; even at high concentrations (Turko et al., 1999)", "result": "does not compete"}]}]}
